Measurements published in US5273991A, “Imidazole-containing compositions and methods of use thereof analogs of distamycin” (Research Corporation Technologies, Inc., priority 1992, dated 1993).

Key:
Assay in all cases: NCI cytotoxicity screen (SRB)
Assay type in all cases: cell-based, human
[1] = tested on: VO-31
Protocol: (§1) Compounds 6, 7, 9 and 10 were tested for cytotoxic properties by the National Cancer Institute, Bethesda, Md. The anticancer drug screen utilized a panel of 60 human tumor cell lines organized into subpanels representing leukemia, melanoma, and cancers of the lung, colon, kidney, ovary and central nervous system and is described by Monks et al. (1991) Journal of the National Cancer Institute 83, 757, which is incorporated herein by reference.
(§2) Cell lines were inoculated onto microtiter plates and preincubated for 24-28 hours. 100 μL aliquots of each compound were added to the appropriate microtiter plate wells in each of five 10-fold dilutions starting from a maximum concentration of 10^-4 M in water or DMSO. Cultures were then incubated for an additional 48 hours. Cells were then fixed in situ, followed by staining with sulforhodamine B (SRB), which binds to basic amino acids of cellular macromolecules. The solubilized stain was measured spectrophotometrically to determine relative cell growth or viability in treated and untreated cells. The monoimidazole analogs of Compounds 6, 7, 9 and 10 and the formamido analog corresponding to Compounds 7 and 10 are devoid of activity against the panel of cancer cell lines in Table III.

[2] = tested on: RPMI-8226
Protocol: as §1, §2

[3] = tested on: TK-10
Protocol: as §1, §2

[4] = tested on: A498
Protocol: as §1, §2

[5] = tested on: SK-MEL-28
Protocol: as §1, §2

[6] = tested on: CAKI-1
Protocol: as §1, §2

[7] = tested on: OVCAR-3
Protocol: as §1, §2

[8] = tested on: CCRF-CEM
Protocol: as §1, §2

[9] = tested on: SK-MEL-2
Protocol: as §1, §2

[10] = tested on: SNB-78
Protocol: as §1, §2

[11] = tested on: OVCAR-4
Protocol: as §1, §2

[12] = tested on: HOP-92; conditions: subsequent test date
Protocol: as §1, §2

[13] = tested on: M14
Protocol: as §1, §2

[14] = tested on: SR
Protocol: as §1, §2

[15] = tested on: M19-MEL
Protocol: as §1, §2

[16] = tested on: SN12C
Protocol: as §1, §2

[17] = tested on: SNB-75
Protocol: as §1, §2

[18] = tested on: 786-0
Protocol: as §1, §2

[19] = tested on: RXR-631
Protocol: as §1, §2

[20] = tested on: SK-OV-3
Protocol: as §1, §2

[21] = tested on: OVCAR-5
Protocol: as §1, §2

[22] = tested on: LOX 1MV1
Protocol: as §1, §2

[23] = tested on: RXF-393
Protocol: as §1, §2

[24] = tested on: SNB-19
Protocol: as §1, §2

[25] = tested on: SK-MEL-5
Protocol: as §1, §2

[26] = tested on: ACHN
Protocol: as §1, §2

[27] = tested on: LXFL529
Protocol: as §1, §2

[28] = tested on: LOX IMVI; conditions: 48 h; Melanoma LOX IMVI
Protocol: as §1, §2

[29] = SK-MEL-28, subsequent test date

SMILES: CN(C)CCNC(=O)c1nc(NC(=O)c2nc(NC(=O)c3ccc(N(CCCl)CCCl)cc3)cn2C)cn1C [Compound 6, N-(N',N'-dimethylaminoethyl)-1-methyl-4-{4-[4,4-bis(2-chloroethyl)aminobenzamido]-1-methylimidazole-2-carboxamido}imidazole-2-carboxamide]
- IC50 ([1]; 48 h, Renal Cancer VO-31): 59.2 µM
- IC50 ([1]; VO-31, subsequent test date): 57.9 µM
- IC50 ([2]; 48 h, Leukemia RPMI-8226): 30.5 µM
- IC50 ([2]; RPMI-8226, subsequent test date): 39.4 µM
- IC50 ([3]; 48 h, Renal Cancer TK-10): 59.9 µM
- IC50 ([3]; TK-10, subsequent test date): 56.2 µM
- IC50 ([4]; 48 h, Renal Cancer A498): 40.6 µM
- IC50 ([4]; A498, subsequent test date): 66 µM
- IC50 ([5]; 48 h, Melanoma SK-MEL-28): 5.69 µM
- IC50 [5, 29]: 5.78 µM
- IC50 ([6]; 48 h, Renal Cancer CAKI-1): 51.9 µM
- IC50 ([6]; CAKI-1, subsequent test date): 59.7 µM
- IC50 ([7]; 48 h, Ovarian Cancer OVCAR-3): 56 µM
- IC50 ([7]; OVCAR-3, subsequent test date): 56.7 µM
- IC50 ([8]; 48 h, Leukemia CCRF-CEM): 10.9 µM
- IC50 ([8]; CCRF-CEM, subsequent test date): 40.3 µM
- IC50 ([9]; 48 h, Melanoma SK-MEL-2): 7.17 µM
- IC50 ([9]; SK-MEL-2, subsequent test date): 5.85 µM
- IC50 ([10]; 48 h, CNS Cancer SNB-78): 67.2 µM
- IC50 ([10]; SNB-78, subsequent test date): 78.9 µM
- IC50 ([11]; 48 h, Ovarian Cancer OVCAR-4): 34.2 µM
- IC50 ([11]; OVCAR-4, subsequent test date): 14.3 µM
- IC50 [12]: 42.7 µM
- IC50 ([13]; 48 h, Melanoma M14): 5.92 µM
- IC50 ([13]; M14, subsequent test date): 5.81 µM
- IC50 ([14]; 48 h, Leukemia SR): 10.4 µM
- IC50 ([14]; SR, subsequent test date): > 100 µM
- IC50 ([15]; 48 h, Melanoma M19-MEL): 5.64 µM
- IC50 ([15]; M19-MEL, subsequent test date): 5.65 µM
- IC50 ([16]; 48 h, Renal Cancer SN12C): 15.6 µM
- IC50 ([16]; SN12C, subsequent test date): 39.9 µM
- IC50 ([17]; 48 h, CNS Cancer SNB-75): 41 µM
- IC50 ([17]; SNB-75, subsequent test date): 41.7 µM
- IC50 ([18]; 786-0, subsequent test date): 6.98 µM
- IC50 ([18]; 48 h, Renal Cancer 786-0): 25.4 µM
- IC50 ([19]; 48 h, Renal Cancer RXR-631): 6.61 µM
- IC50 ([19]; RXR-631, subsequent test date): 9.95 µM
- IC50 ([20]; 48 h, Ovarian Cancer SK-OV-3): 52.9 µM
- IC50 ([20]; SK-OV-3, subsequent test date): 6.18 µM
- IC50 ([21]; 48 h, Ovarian Cancer OVCAR-5): 45.7 µM
- IC50 ([21]; OVCAR-5, subsequent test date): 51.3 µM
- IC50 ([22]; LOX 1MV1, subsequent test date): 7.47 µM
- IC50 ([23]; 48 h, Renal Cancer RXF-393): 50.3 µM
- IC50 ([23]; RXF-393, subsequent test date): 44.3 µM
- IC50 ([24]; 48 h, CNS Cancer SNB-19): 43.7 µM
- IC50 ([24]; SNB-19, subsequent test date): 32.4 µM
- IC50 ([25]; SK-MEL-5, subsequent test date): 52 µM
- IC50 ([26]; 48 h, Renal Cancer ACHN): 54.2 µM
- IC50 ([26]; ACHN, subsequent test date): 46.9 µM
- IC50 ([27]; 48 h, Non-Small Cell Lung Cancer LXFL529): 13.2 µM
- IC50 ([27]; LXFL529, subsequent test date): 34.8 µM

SMILES: CN(C)CCNC(=O)c1nc(NC(=O)c2nc(NC(=O)c3nc(NC(=O)c4ccc(N(CCCl)CCCl)cc4)cn3C)cn2C)cn1C [Compound 7, N-(N',N'-dimethylaminoethyl)-1-methyl-4-{1-methyl-4-[4-(4,4-bis-(2-chloroethyl)aminobenzamido)-1-methylimidazole-2-carboxamido]imidazole-2-carboxamido}imidazole-2-carboxamide]
- IC50 ([1]; 48 h, Renal Cancer VO-31): > 100 µM
- IC50 ([1]; VO-31, subsequent test date): 96.6 µM
- IC50 ([3]; 48 h, Renal Cancer TK-10): 4.2 µM
- IC50 ([3]; TK-10, subsequent test date): 3.51 µM
- IC50 ([4]; 48 h, Renal Cancer A498): 7.76 µM
- IC50 ([5]; 48 h, Melanoma SK-MEL-28): 0.91 µM
- IC50 [5, 29]: 0.64 µM
- IC50 ([6]; 48 h, Renal Cancer CAKI-1): > 100 µM
- IC50 ([7]; 48 h, Ovarian Cancer OVCAR-3): 0.72 µM
- IC50 ([7]; OVCAR-3, subsequent test date): 0.62 µM
- IC50 ([8]; 48 h, Leukemia CCRF-CEM): 1.52 µM
- IC50 ([9]; 48 h, Melanoma SK-MEL-2): 0.65 µM
- IC50 ([11]; 48 h, Ovarian Cancer OVCAR-4): 0.61 µM
- IC50 ([11]; OVCAR-4, subsequent test date): 0.5 µM
- IC50 [12]: 3.33 µM
- IC50 ([13]; M14, subsequent test date): 0.59 µM
- IC50 ([14]; 48 h, Leukemia SR): 0.91 µM
- IC50 ([15]; M19-MEL, subsequent test date): 0.78 µM
- IC50 ([16]; SN12C, subsequent test date): 0.61 µM
- IC50 ([17]; 48 h, CNS Cancer SNB-75): 0.61 µM
- IC50 ([18]; 786-0, subsequent test date): 0.51 µM
- IC50 ([19]; 48 h, Renal Cancer RXR-631): 5.97 µM
- IC50 ([20]; 48 h, Ovarian Cancer SK-OV-3): 0.83 µM
- IC50 ([20]; SK-OV-3, subsequent test date): 0.48 µM
- IC50 ([21]; 48 h, Ovarian Cancer OVCAR-5): 6.13 µM
- IC50 ([21]; OVCAR-5, subsequent test date): 5.24 µM
- IC50 ([22]; 48 h, Melanoma LOX 1MV1): 0.89 µM
- IC50 ([22]; LOX 1MV1, subsequent test date): 4.51 µM
- IC50 ([23]; 48 h, Renal Cancer RXF-393): 0.66 µM
- IC50 ([24]; 48 h, CNS Cancer SNB-19): > 100 µM
- IC50 ([25]; 48 h, Melanoma SK-MEL-5): 0.63 µM
- IC50 ([26]; 48 h, Renal Cancer ACHN): 7.05 µM
- IC50 ([26]; ACHN, subsequent test date): 4.92 µM
- IC50 ([27]; LXFL529, subsequent test date): 0.54 µM

SMILES: CN(C)CCNC(=O)c1nc(NC(=O)c2nc(NC(=O)CCCc3ccc(N(CCCl)CCCl)cc3)cn2C)cn1C [Compound 9, N-(N',N'-dimethylaminoethyl)-1-methyl-4-{4-[4,4-bis(2-chloroethyl)aminophenyl-1-butanamido]-1-methylimidazole-2-carboxamido}imidazole-2-carboxamide]
- IC50 [28]: 49.5 µM

SMILES: CN(C)CCNC(=O)c1nc(NC(=O)c2nc(NC(=O)c3nc(NC(=O)CCCc4ccc(N(CCCl)CCCl)cc4)cn3C)cn2C)cn1C [Compound 10, N-(N',N'-dimethylaminoethyl)-1-methyl-4-{1-methyl-4-[4-(4,4-bis(2-chloroethyl)aminophenyl-1-butanamido)-1-methylimidazole-2-carboxamido]imidazole-2-carboxamido}imidazole-2-carboxamide]
- IC50 ([2]; 48 h, Leukemia RPMI-8226): 9.5 µM
- IC50 ([10]; 48 h, CNS Cancer SNB-78): 9.75 µM
- IC50 [28]: 6.44 µM
